Measurements: patent US20260055364A1, “Methods for Improving Sperm Function and Fertilizing Ability for Assisted Reproduction Techniques” (Consejo Nacional de Investigaciones Cientificas y Técnicas …, priority 2022, published 2026)

Key:
[1] = tested on: sperm; conditions: cited from earlier work
[2] = tested on: human sperm; conditions: high-concentration ionophore treatment and removal; cited from earlier work
[3] = tested on: human sperm; assay: Sperm motility analysis (CASA) of human sperm after ionophore and/or temperature treatment; assay type: cell-based; conditions: 0.5 μM for 2 min before incubation at 40° C. for 30 min; FIG. 2A
Procedure: Sperm Motility Analysis: Aliquots of 9.7 μl of sperm suspensions were placed on slides under 18 mm×18 mm coverslips, obtaining a preparation depth of 30 μm, and maintained at 37° C. using a temperature-controlled stage. Sperm motility parameters were evaluated using the Sperm Class Analyzer® system (SCA v.6.2.0.1., Microptic SL, Barcelona, Spain), acquiring 60 frames per second. At least 5 microscopic fields and 300 sperm were analyzed. The following parameters were assessed: curvilinear velocity (VCL, μm/s), straight line velocity (VSL, μm/s), average path velocity (VAP, μm/s), linearity ([…]), straightness (STR×100, %), wobble (WOB: VAP/VCL×100, a measure of sperm head side to side movement, %), amplitude of lateral head displacement (ALH, μm) and beat cross frequency (BCF, Hz). Sperm motility was measured and classified as follows: rapid progressive (VCL≥35 μm/s; STR≥80%), medium progressive (VCL≥15 μm/s; STR≥80%), in situ (VCL<15 μm/s; VAP≥5 μm/s) and immotile (VAP<5 μm/s). Percentages of total (rapid progressive+medium progressive+in situ) and progressive (rapid+medium progressive) motility were recorded. Drifting was set in 25 μm/s. Sperm were considered hyperactivated when presenting VCL≥150 μm/s, LIN<50% and ALH≥3.5 μm.
Semen samples from healthy men were processed by density gradient centrifugation as stated in Example 1. […]

[4] = tested on: mouse sperm; conditions: cited from earlier work

CNc1ccc2oc(C[C@H]3O[C@@]4(CC[C@H]3C)O[C@H]([C@H](C)C(=O)c3ccc[nH]3)[C@H](C)C[C@H]4C)nc2c1C(=O)O [A23187]
sperm HA ([1]; 0.5 and 1 μM): provoked sperm HA without immobilization | sperm motility ([1]; 5-10 μM, in a few minutes): immobilized sperm | intracellular Ca2+ concentrations ([1]; 5-10 μM): substantially elevated | motility after ionophore treatment [2]: does not regain motility | levels of HA compared to control [3]: higher levels of HA | hyperactivation after removal of the ionophore ([4]; 10-20 μM for 10 min, then removal, Tateno et al): acquires HA | sperm motility ([4]; 10-20 μM for 10 min, Tateno et al): immobilizes | fertility of sperm from CatSper1−/−, Slo3−/− and Adcy10−/− knock-out lines ([4]; 10-20 μM for 10 min with posterior removal, Navarrete et al (2016)): overcomes infertility
